The values below are quoted from earlier work in article PMC9054096 (RSC Advances, 2020).

The target of one series is Human galectin-3 (Homo sapiens, UniProt P17931). The settings on record: read-out: Galectin-3 affinity (Kd); reference compound.
The target in another series is Human galectin-9N (Homo sapiens, UniProt O00182). The settings on record: read-out: Galectin-9N affinity (Kd); reference compound.
Another series concerns the target T1, Human galectin-4N (Homo sapiens, UniProt P56470).
T1 sequence (P56470 19-150 limits assumed): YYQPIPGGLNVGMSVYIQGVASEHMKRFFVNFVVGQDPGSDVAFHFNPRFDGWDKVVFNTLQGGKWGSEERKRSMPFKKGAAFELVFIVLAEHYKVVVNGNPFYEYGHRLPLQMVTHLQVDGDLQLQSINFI
The settings on record: read-out: Galectin-4N affinity (Kd); reference compound.

The target in the next series is T2, Human galectin-4C (Homo sapiens, UniProt P56470).
T2 sequence (P56470 194-323 limits assumed): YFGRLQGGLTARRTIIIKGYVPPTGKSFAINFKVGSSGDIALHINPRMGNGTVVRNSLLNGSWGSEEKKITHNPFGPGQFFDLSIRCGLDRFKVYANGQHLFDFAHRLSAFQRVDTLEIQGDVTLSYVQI
The settings on record: read-out: Galectin-4C affinity (Kd); reference compound.

For a further series, the target named is Human galectin-9C (Homo sapiens, UniProt O00182). The settings on record: read-out: Galectin-9C affinity (Kd); reference compound.
Chain of Human galectin-9C (O00182 227-355 limits assumed): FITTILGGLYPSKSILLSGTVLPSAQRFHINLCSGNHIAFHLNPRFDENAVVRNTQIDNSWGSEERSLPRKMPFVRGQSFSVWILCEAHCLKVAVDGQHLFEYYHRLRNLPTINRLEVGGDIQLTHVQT
In another series the target is Human galectin-1 (Homo sapiens, UniProt P09382). The settings on record: read-out: Galectin-1 affinity (Kd); reference compound.
Chain of Human galectin-1 (P09382 whole entry): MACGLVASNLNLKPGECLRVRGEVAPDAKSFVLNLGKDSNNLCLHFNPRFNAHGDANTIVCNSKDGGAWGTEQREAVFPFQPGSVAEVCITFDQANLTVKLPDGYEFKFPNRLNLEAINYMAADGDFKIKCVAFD

Chain of Human galectin-9N (O00182 17-148 limits assumed): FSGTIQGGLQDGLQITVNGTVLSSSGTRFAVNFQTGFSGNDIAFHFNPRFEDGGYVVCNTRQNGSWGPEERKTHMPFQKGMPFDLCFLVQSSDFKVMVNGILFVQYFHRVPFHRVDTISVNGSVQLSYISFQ
Chain of Human galectin-3 (P17931 whole entry): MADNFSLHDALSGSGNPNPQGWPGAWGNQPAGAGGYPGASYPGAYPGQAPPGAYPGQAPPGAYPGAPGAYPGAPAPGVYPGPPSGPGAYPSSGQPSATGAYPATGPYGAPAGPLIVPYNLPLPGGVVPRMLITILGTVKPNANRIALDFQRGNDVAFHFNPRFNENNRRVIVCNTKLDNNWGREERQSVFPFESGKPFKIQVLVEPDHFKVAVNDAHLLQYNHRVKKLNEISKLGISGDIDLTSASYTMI

As for `O=C(O)c1ccc2ccc(CO[C@@H]3[C@@H](O)[C@@H](Sc4ccc(Cl)c(Cl)c4)O[C@H](CO)[C@@H]3O)nc2c1` [Compound 2, 3,4-dichlorophenyl 3-O-(7-carboxy-quinolin-2-yl-methyl)-1-thio-α-D-galactopyranoside], the Kd was 1.27 ± 0.07 µM at Human galectin-3; 2.06 ± 0.09 µM at Human galectin-9N; 43 ± 7.1 µM at Human galectin-4N; 43 ± 5.7 µM on Human galectin-4C; 14 ± 1.3 µM on Human galectin-9C; 48 ± 4.4 µM on Human galectin-1.
